Assay results reported in publication PMC7767166, “Imidazole and Imidazolium Antibacterial Drugs Derived from Amino Acids” (Pharmaceuticals, 2020).
Several values for one entry are separate records, joined by “and”; a condition that tells them apart may be missing. Equal entries are not always repeated.

What was measured:
[1] = Critical aggregation concentration by pyrene fluorescence (I1/I3); format: physicochemical; settings: for CAC Fluorescence, CCM:W, CAC1 / CAC Fluorescence, CCM:W, CAC2: 1/1 bacterial cell culture medium/water; for CAC Fluorescence, CCM:W, CAC1 / CAC Fluorescence, CCM:W, CAC2 / CAC Fluorescence, W: 25 °C; for CAC Fluorescence, CCM:W, CAC1: first break point; for CAC Fluorescence, CCM:W, CAC2: second break point; for CAC Fluorescence, W: in water, from the break point
Text: To investigate the microenvironment of the critical aggregation concentration (CAC) for self-assembly in water and in the bacterial cell culture medium by fluorescence, the intensity ratio of two of the peaks (I1/I3) of the pyrene fluorescence spectrum was used. Plots of the pyrene I1/I3 ratio as a function of the total surfactant concentration show a typical sigmoidal decrease in the region where self-assembly takes place. At low concentrations, this ratio is larger as it corresponds to a polar environment for pyrene. When the surfactant concentration increases this ratio decreases rapidly, as the self-assembly favors the location of pyrene in a more hydrophobic environment, until reaching a roughly constant value because of the full incorporation of the probe into the hydrophobic region of the aggregates. Different approaches have been used to estimate CAC values from I1/I3 ratios. The most common approach is the use of the break points, either directly or by extrapolating the values from the intersection of the two straight lines defined at the constant and variable regions of the I1/I3 sigmoidal curve. As CAC represents the threshold of concentration at which self-aggregation starts, the corresponding value can be estimated from the break point at lower concentration (see Figures S9–S14). Fluorescence studies were carried out using MilliQ® water and 1/1 MilliQ® water/bacterial cell culture medium, because with the pure cell culture medium, a strong broad fluorescence emission band was observed precluding an accurate analysis. […] The corresponding CACs obtained in water and in the 1/1 mixture of water/bacterial cell culture medium by fluorescence are shown in Table 2. Pyrene was used as a fluorescence probe to determine the CAC of the compounds in water and 1/1 water/bacterial cell culture medium at 25 ± 1 °C. Fluorescence measurements were performed with a Spex Fluorolog 3-11 instrument equipped with a 450 W xenon lamp (right angle mode). Firstly, a stock pyrene solution of 1.98 × 10^−4 mol/L was prepared in ultrapure methanol. Then, solutions of the imidazole and imidazolium salt compounds (ranging from 6 to 3 × 10^−3 mmol/L) were prepared in different vials and 5 μL of pyrene solution was transferred into the vials, reaching a final pyrene concentration of 9.89 × 10^−7 mol/L in each vial. Fluorescence spectra of pyrene were recorded from 200 to 650 nm after excitation at 337 nm, and the spectra were not corrected for the Xe lamp spectral response. The slit width was set at 5 nm for both excitation and emission. The peak intensities at 373 and 385 nm were determined as I1 and I3, respectively. The ratios of the peak intensities at 373 and 385 nm (I1/I3) for the emission spectra were recorded as a function of the logarithm of concentration. The CAC values were taken from the break point. Samples were excited with a 337 nm NanoLED.

[2] = tested on: HEK-293 cells; experiment: Cell proliferation assay for cytotoxicity (MTT); format: cell-based, human; settings: 2 days of incubation
Method: Human embryonic kidney cells, HEK-293, were chosen as a cell model to evaluate the cytotoxicity of the compounds. The HEK-293 cells were incubated in the cell culture medium with varying concentrations of the examined compound and the impact of treatment was measured using the MTT cell viability assay.
Cell culture media for cytotoxicity studies were purchased from Gibco (Grand Island, NY, USA). Fetal bovine serum (FBS) was obtained from HyClone (UT, USA). Supplements and other chemicals not listed in this section were obtained from Sigma Chemical Co. (St. Louis, MO, USA). Plastics for cell culture were supplied by Thermo Scientific BioLite (Madrid, Spain). All tested compounds were dissolved in DMSO at a concentration of 10 mM and stored at −20 °C until use. HEK-293 cell lines were maintained in Dulbecco’s modified Eagle’s medium (DMEM) containing glucose (1 g/L), glutamine (2 mM), penicillin (50 μg/mL), streptomycin (50 μg/mL), and amphotericin B (1.25 μg/mL) supplemented with 10% FBS.
In 96-well plates, 3 × 10^3 HEK-293 cells per well were seeded and incubated with serial dilutions of the tested compounds (from 200 to 0.2 μM) to a total volume of 100 μL of their growth media. The 3-(4,5-dimethylthiazol-2-yl)-2,5-diphenyltetrazolium bromide (MTT; Sigma Chemical Co.) dye reduction assay in 96-well microplates was used, as previously described. After 2 days of incubation (37 °C, 5% CO2 in a humid atmosphere), 10 μL of MTT (5 mg/mL in phosphate-buffered saline, PBS) was added to each well, and the plate was incubated for a further 3 h (37 °C). The supernatant was discarded and replaced by 100 µL of DMSO to dissolve formazan crystals. The absorbance was then read at 540 nm by Multiskan^TM FC microplate reader. For all concentrations of compound, cell viability was expressed as the percentage of the ratio between the mean absorbance of treated cells and the mean absorbance of untreated cells. Three independent experiments were performed, and the IC50 values (i.e., concentration half inhibiting cell proliferation) were graphically determined using GraphPad Prism 4 software.

[3] = bacterial cell culture medium/water

CAC Fluorescence, CCM:W, CAC1 [1] [mM] | CAC Fluorescence, CCM:W, CAC2 [1] [mM] | CAC Fluorescence, W [1] [mM] | first break point (I1/I3 vs concentration) [1, 3] [µM] | second break point (I1/I3 vs concentration) [1, 3] | Compound | IC50 ([2]; Homo sapiens, HEK293, 48 h) | IC50 [2] [µM]
0.063 | 0.33 | 0.098 |  |  | CCCCCCCCCCCCNC(=O)[C@H](Cc1ccccc1)n1cc[n+](Cc2ccccc2)c1 [Compound 3b] | 109 µM and 61 µg/mL | 
0.016 | 0.21 | 0.010 |  |  | CCCCCCCCCCCCNC(=O)[C@H](C(C)C)n1cc[n+](Cc2cccc(C[n+]3ccn([C@@H](C(=O)NCCCCCCCCCCCC)C(C)C)c3)c2)c1 [Compound 1c] | 19 µM and 18 µg/mL | 
 |  |  |  |  | CCCCCCCCCCCCNC(=O)[C@@H](Cc1ccccc1)n1cc[n+](Cc2cccc(C[n+]3ccn([C@@H](Cc4ccccc4)C(=O)NCCCCCCCCCCCC)c3)c2)c1 [Compound 3c] | 36 µM and 37 µg/mL | < 36
0.004 | 0.045 | 0.085 |  |  | CCCCCCCCCCCCNC(=O)[C@H](C(C)C)n1ccnc1 [Compound 1a] | 9.6 µM and 3.2 µg/mL | 
2.89 | 5.4 | 4.31 |  |  | CCCCNC(=O)[C@H](C(C)C)n1ccnc1 [Compound 2a] | > 45 µg/mL | 
2.25 | 3.54 | 2.34 |  |  | CCCCNC(=O)[C@H](C(C)C)n1cc[n+](Cc2cccc(C[n+]3ccn([C@@H](C(=O)NCCCC)C(C)C)c3)c2)c1 [Compound 2c] | > 142 µg/mL | 
0.018 | 0.325 | 0.033 |  |  | CCCCCCCCCCCCNC(=O)[C@H](Cc1ccccc1)n1ccnc1 [Compound 3a] | 19 µM and 7.3 µg/mL | < 36
3.46 | 8.4 | 4.57 |  |  | CCCCNC(=O)[C@H](C(C)C)n1cc[n+](Cc2ccccc2)c1 [Compound 2b] | > 79 µg/mL | 
0.006 | 0.048 | 0.084 | 6 | ca. 48 μM | CCCCCCCCCCCCNC(=O)[C@H](C(C)C)n1cc[n+](Cc2ccccc2)c1 [Compound 1b] | 1.8 µM and 0.8 µg/mL | 
